Experimental data published in publication PMC3319098 (Journal of the American Chemical Society, 2012).

Tests used:
[1] = molecular target: T1, bovine carbonic anhydrase (BCA) (Bos taurus, UniProt P00921); experiment: MagLev measurement of BCA binding to ligand-functionalized PEGA beads; conditions: incubation with 0.33 mM BCA for 7 days; standard levitation buffer
[2] = molecular target: T1, bovine carbonic anhydrase (BCA); conditions: resin-bound control ligand; cited from earlier work

T1 sequence (P00921 whole entry): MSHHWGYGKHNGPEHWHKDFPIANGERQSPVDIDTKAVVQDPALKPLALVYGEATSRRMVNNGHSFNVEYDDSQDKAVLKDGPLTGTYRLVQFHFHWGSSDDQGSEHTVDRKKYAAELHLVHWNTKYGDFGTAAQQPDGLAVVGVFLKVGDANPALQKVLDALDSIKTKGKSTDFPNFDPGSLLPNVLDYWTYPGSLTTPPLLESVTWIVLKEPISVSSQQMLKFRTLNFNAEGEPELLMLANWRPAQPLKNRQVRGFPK

decrease in the levitation height of functionalized beads [1]: < 0.1 mm
Structure (SMILES): CN(C)S(=O)(=O)c1ccc(C(=O)O)cc1 [sulfonamide 2, 4-dimethylsulfamoylbenzoic acid]
association with BCA [2]: should not associate measurably
